Test results reported in US20240058363A1 (Emyria, priority 2020, published 2024).

How the values were obtained:
Format in all cases: in vivo, human
[1] = tested on: symptoms of depression; test: DASS-21 depression score in patients treated with CBD only (clinical data registry); conditions: for DASS-21 Depression Score, Post 1-month follow-up Mean (Std. dev): mean days of treatment 47 (+/−23)
Text: (§1) Detailed demographic information and validated standardised questionnaires were collected as part of routine care. Written informed consent to treatment was obtained from all patients, as well as additional consent to participate in Emyria's clinical data registry, data from participating patients were anonymised, aggregated, and analysed to establish clinical efficacy.
(§2) Clinically validated tools were used to monitor patients for management of symptoms, quality of life, physical/emotional functioning, and concomitant medication usage. Patients were asked about their cannabis history and initially pre-screened for any illicit cannabis use before commencing on medicinal cannabis treatment using the Cannabis Use Disorder Identification Test (CUDIT), a urine screen was performed to confirm negative result for cannabis in their urine before they commence treatment. After they commenced on medicinal cannabis treatment they were initially treated with low doses and monitored for safety and efficacy of treatment before dose escalation is considered.
(§3) Patients are excluded from treatment with medicinal cannabis if they: were pregnant or breast-feeding; have untreated heart disease, heart failure or arrhythmia; a history of severe psychiatric disorders; active suicidal ideation; a history of dependence on cannabis; a history of dependence or abuse of psychoactive substances; detectable urinary THC before commencement of medicinal cannabis.
(§4) A potentially eligible individual who met any of the following criteria will be excluded from participation if the following criteria is met: • 1. Clinically recorded cannabis drug addiction, or cannabis use disorder including individuals with scores 8 or more on the Cannabis Use Disorder Identification Test (CUDIT). • 2. Untreated cardiovascular disease, arrhythmias (other than well controlled atrial fibrillation), or severe heart failure. • 3. History of suicide attempts or suicidal ideation. • 4. History of psychotic episode, schizophrenia or other psychotic disorders.
(§5) Patients were assessed monthly by the clinical team (doctor and nurse) and a visit schedule protocol was followed for each patient. A full medical history was conducted at the initial visit, including a detailed history of the clinical indication (including duration symptoms), comorbidities mental and cardiac health conditions, previous procedures, medications and therapies tried. Patients were reviewed as per the Schedule of Assessments (FIG. 2). Cannabinoid dose and Adverse events were also recorded at each visit after treatment began and categorised as mild (no product change indicated), moderate (product change indicated), severe (product cessation indicated) or serious (life-threatening/medical emergency).
(§6) The doctors treating patients prescribed orally-based medicinal cannabis standardised products as per approval under the Therapeutic Goods Administration (TGA) through the Special Access Scheme (SAS) Category B and Authorised Prescriber (AP) scheme. The prescribing doctor will decide which product type including THC/CBD ratio and CBD only, based on TGA guidance documents (ie for pain THC/CBD type is generally prescribed) [see https://www.tga.gov.au/medicinal-cannabis-guidance-documents], but also will factor in patient's circumstances such as driving (then CBD only prescribed).
(§7) Treatment dosing by the prescribing doctor was in accordance with Emyria (Emerald Clinics) experience, well-tolerated with minimal side effects. Doctors reviewed patients after the 14 day (2 week), see the Schedule of Assessments (FIG. 2). Following the 2-week dosing review where a doctor may increase/decrease the dosage or change product type, patients were then seen regularly (generally monthly) as per the Schedule of Assessments (FIG. 2). Patients taking CBD only products were prescribed either oil or capsules. […]

[2] = tested on: patients; test: Adverse events recorded at each visit in patients on CBD only
Method: as §5
Adverse events (AE) were recorded at each of the visits. AEs were categorised as either: Mild (required no change in dose or product), Moderate (required change in dose or product), Severe (required cessation of product) or Serious (medical emergency).
All AEs reported during treatment were recorded. Assessments included monitoring of any or all of the following parameters: the participant's clinical symptoms, laboratory, pathological, radiological or surgical history, physical examination findings, and/or or findings from blood/urine tests. The nature, time of onset, duration and severity will be documented, together with the Investigator's opinion of the relationship to the Medicinal cannabis product.
Review of the dose and side effects was conducted by the doctor at 2 weeks; the doctors then advise whether to increase/or decreases doses. Reviews and clinical visits beyond the 2 weeks occurred monthly or more often as required by the patient due to efficacy and side effects.

[3] = tested on: symptoms of stress; test: DASS-21 stress score in patients treated with CBD only (clinical data registry); conditions: for DASS-21 Stress Score, Post 1-month follow-up Mean (Std. dev): mean days of treatment 47 (+/−23)
Text: as §1, §2, §3, §4, §5, §6, §7

[4] = average treatment window of slightly under 13 days
[5] = dosage amounts between 50-200 mg per day
[6] = mean treatment horizon of 22 days
[7] = mean treatment period of 7 days
[8] = patients with subthreshold and clinically significant scores at baseline
[9] = among the 36 patients that experienced AEs

C=C(C)C1CCC(C)=CC1c1c(O)cc(CCCCC)cc1O (stereo not shown) [cannabidiol, 2-[3-methyl-6-(1-methylethenyl)-2-cyclohexen-1-yl]-5-pentyl-1,3-benzenediol]
DASS-21 Depression Score, Post 1-month follow-up Mean (Std. dev) ([1]; All (n = 146), initial mean 17.4 (9.6), p 0.000): 12.8 (10.0)
DASS-21 Depression Score, Post 1-month follow-up Mean (Std. dev) ([1]; Mod to extreme (n = 92), initial mean 22.7 (8.0), p 0.000): 16.4 (10.6)
Decrease in depression score [1, 4]: −11.2
DASS-21 Depression Score, Post 1-month follow-up Mean (Std. dev) ([1]; baseline category Extremely Severe 28+ (n = 28), initial mean 32.9 (5.2), p 0.000): 21.4 (11.6)
DASS-21 Depression Score, Post 1-month follow-up Mean (Std. dev) ([1]; baseline category Mild 10-13 (n = 29), initial mean 10.9 (1.0), p 0.000): 7.1 (4.6)
DASS-21 Depression Score, Post 1-month follow-up Mean (Std. dev) ([1]; baseline category Moderate 14-20 (n = 49), initial mean 16.4 (2.2), p 0.002): 12.8 (8.1)
DASS-21 Depression Score, Post 1-month follow-up Mean (Std. dev) ([1]; baseline category Normal 0-9 (n = 25), initial mean 5.5 (2.3), p 0.543): 6.2 (4.8)
DASS-21 Depression Score, Post 1-month follow-up Mean (Std. dev) ([1]; baseline category Severe 21-27 (n = 15), initial mean 24.1 (1.6), p 0.089): 18.8 (11.7)
Change in depression score from initial visit to first follow-up versus dosage (FIG. 8) [1, 5]: correlated with a higher value of change indicating less symptoms of anxiety, stress and/or depression
Fall in depression score [1, 6]: −3.9
Decline in depression score [1, 7]: −17.5
Mean DASS-21 depression score over the first six months (FIG. 15) [1, 8]: significant reduction over the 6-month period
Patients with any AEs ([2]; 36 out of 190 patients on CBD only): 19%
Share of AEs that were mild (no change in dose or product) [2, 9]: 61%
Share of AEs that were moderate (requiring change in dose or product) [2, 9]: 36%
Patients with severe AEs (allergic reactions and constipation) resulting in cessation of the product ([2]; one of the 36 patients with AEs): 2.8%
DASS-21 Stress Score, Post 1-month follow-up Mean (Std. dev) ([3]; All (n = 146), initial mean 21.6 (9.5), p 0.000): 16.2 (9.5)
DASS-21 Stress Score, Post 1-month follow-up Mean (Std. dev) ([3]; Mod to extreme (n = 79), initial mean 28.8 (6.2), p 0.000): 20.5 (9.4)
Decrease in stress score [3, 4]: −9.0
DASS-21 Stress Score, Post 1-month follow-up Mean (Std. dev) ([3]; baseline category Extremely Severe 34+ (n = 18), initial mean 38.2 (2.4), p 0.000): 21.7 (12.2)
DASS-21 Stress Score, Post 1-month follow-up Mean (Std. dev) ([3]; baseline category Mild 15-18 (n = 27), initial mean 16.9 (1.0), p 0.038): 14.1 (6.5)
DASS-21 Stress Score, Post 1-month follow-up Mean (Std. dev) ([3]; baseline category Moderate 19-25 (n = 27), initial mean 22.4 (1.8), p 0.002): 17.2 (7.7)
DASS-21 Stress Score, Post 1-month follow-up Mean (Std. dev) ([3]; baseline category Normal 0-14 (n = 40), initial mean 10.6 (3.1), p 0.100): 9.0 (6.0)
DASS-21 Stress Score, Post 1-month follow-up Mean (Std. dev) ([3]; baseline category Severe 26-33 (n = 34), initial mean 28.9 (1.9), p 0.000): 22.6 (8.4)
Change in stress score from initial visit to first follow-up versus dosage (FIG. 7) [3, 5]: correlated with a higher value of change indicating less symptoms of anxiety, stress and/or depression
Fall in stress score [3, 6]: −5.8
Decline in stress score [3, 7]: −16.0
Mean DASS-21 stress score over the first six months (FIG. 16) [3, 8]: significant reduction over the 6-month period
